Results: the NIST ThermoML archive (doi:10.1016/j.jct.2013.12.008)
± gives the expanded uncertainty stated by the source.

Conditions: 101.33 kPa, Liquid; for viscosity: Capillary tube (Ostwald / Ubbelohde) method; for mass density: Pycnometric method

Row | Compound | viscosity (298.15 K) | mass density (298.15 K) | viscosity (308.15 K) | mass density (308.15 K) | viscosity (318.15 K) | mass density (318.15 K)
1 | CCOc1ccccc1 [ethoxybenzene] | 1.223 ± 0.05 mPa·s | 960.2 ± 0.6 kg/m3 | 0.982 ± 0.04 mPa·s | 953.4 ± 0.8 kg/m3 | 0.823 ± 0.034 mPa·s | 942.5 ± 0.9 kg/m3
2 | COc1ccccc1 [anisole] | 0.989 ± 0.04 mPa·s | 988.9 ± 0.8 kg/m3 | 0.906 ± 0.037 mPa·s | 979.5 ± 0.8 kg/m3 | 0.84 ± 0.034 mPa·s | 970.5 ± 0.8 kg/m3
